Converted amounts (≈) assume the structure as drawn.
Tests used:
Enterococcus = assay: In vitro antibacterial activity, dilution in Mueller Hinton Agar (Table I); assay type: cell-based
Protocol: (§1) All the tests were carried out and (when necessary) scored under standard conditions. "MIC" means "minimum inhibitory concentration."
(§2) In vitro Antibacterial Activity of 2-aminoalkyl-3-phenyl-
(§3) indoles of the formula I. Dilution in Mueller Hinton Agar pH 7.4

Proteus mirabilis = assay: as above; assay type: cell-based; settings: Mueller Hinton Agar pH 7.4
Protocol: as §1, §2, §3

Staphylococcus aureus = assay: as above; assay type: cell-based; settings: Mueller Hinton Agar pH 7.4
Protocol: as §1, §2, §3

Bacteroides corrodens = assay: In vitro activity against anaerobes in fluid Thioglycollate medium (Table II); assay type: cell-based; settings: Eikenella corrodens
Protocol: as §1
(§4) In vitro activity of 2-aminoalkyl-3-phenylindoles of the formula I
(§5) against anaerobes in fluid Thioglycollate medium

Bacteroides fragilis = assay: as above; assay type: cell-based
Protocol: as §1, §4, §5

[1] = test system: Bacteroides melaninogenicus; assay: as above; assay type: cell-based
Protocol: as §1, §4, §5

Clostridium histolyticum = assay: as above; assay type: cell-based; settings: Hathewaya histolytica
Protocol: as §1, §4, §5

Clostridium novyi = assay: as above; assay type: cell-based
Protocol: as §1, §4, §5

Clostridium septicum = assay: as above; assay type: cell-based
Protocol: as §1, §4, §5

Eubacterium lentum = assay: as above; assay type: cell-based; settings: Eggerthella lenta
Protocol: as §1, §4, §5

Peptostreptococcus = assay: as above; assay type: cell-based
Protocol: as §1, §4, §5

Candida albicans = assay: In vitro Anti-Candida activity, dilutions in Sabouraud's Dextrose Agar (Table III); assay type: cell-based; settings: 48 h
Protocol: as §1
In vitro Anti-Candida Activity of 2-aminoalkyl-3-phenyl-
indoles of the formula I. Dilutions in Sabouraud's Dextrose
MIC (mcg/ml) after 48 hours

Aspergillus niger 6275 = assay: In vitro antifungal activity, dilutions in Sabouraud's Dextrose Broth (Table IV); assay type: cell-based; settings: after 96 hours
Protocol: as §1
(§6) In vitro Antifungal Activity of 2-amioalkyl-3-phenylindoles
(§7) of the formula I against Dermetophytes and Aspergillus.
(§8) Dilutions in Sabouraud's Dextrose Broth.

Aspergillus sp. No. 3 = assay: as above; assay type: cell-based; settings: after 96 hours
Protocol: as §1, §6, §7, §8

Epidermophyton floccosum = assay: as above; assay type: cell-based; settings: after 96 hours
Protocol: as §1, §6, §7, §8

Microsporum distortum = assay: as above; assay type: cell-based; settings: after 96 hours
Protocol: as §1, §6, §7, §8

Microsporum nanum = assay: as above; assay type: cell-based; settings: Nannizzia nana; after 96 hours
Protocol: as §1, §6, §7, §8

Trichophyton ascoides = assay: as above; assay type: cell-based; settings: after 96 hours
Protocol: as §1, §6, §7, §8

Trichophyton discoides = assay: as above; assay type: cell-based; settings: after 96 hours
Protocol: as §1, §6, §7, §8

Trichophyton ferrugineum = assay: as above; assay type: cell-based; settings: Microsporum ferrugineum; after 96 hours
Protocol: as §1, §6, §7, §8

Trichophyton gallinae = assay: as above; assay type: cell-based; settings: after 96 hours
Protocol: as §1, §6, §7, §8

Trichophyton megninii = assay: as above; assay type: cell-based; settings: Trichophyton rubrum; after 96 hours
Protocol: as §1, §6, §7, §8

[2] = test system: Trichophyton mentagrophytes; assay: as above; assay type: cell-based; settings: 96 h
Protocol: as §1, §6, §7, §8

Trichophyton rubrum = assay: as above; assay type: cell-based; settings: 96 h
Protocol: as §1, §6, §7, §8

[3] = test system: Trichophyton schoenleinii; assay: as above; assay type: cell-based; settings: 96 h
Protocol: as §1, §6, §7, §8

Trichophyton soudenense = assay: as above; assay type: cell-based; settings: after 96 hours
Protocol: as §1, §6, §7, §8

Trichophyton tonsurans = assay: as above; assay type: cell-based; settings: after 96 hours
Protocol: as §1, §6, §7, §8

Tricoderm sp. = assay: as above; assay type: cell-based; settings: after 96 hours
Protocol: as §1, §6, §7, §8

[4] = Acute toxicity in mice (Table V); settings: mouse, in vivo
Protocol: as §1
Acute Toxicity of 2-aminoalkyl-3-phenylindoles of the formula I

Trychomonas vaginalis = assay: In vitro Anti-Trichomonal activity (Table VII); assay type: cell-based
Protocol: as §1
In vitro Anti-Trichomonal Activity of some 2-aminoalkyl-3-
phenyl-indenes of formula II.

SMILES: NCc1[nH]c2ccc(Cl)cc2c1-c1c(F)cccc1F [B, 2-aminomethyl-5-chloro-3-(2,6-difluorophenyl)indole]
- MIC (Enterococcus; pH 7.4, strain 373, Mueller Hinton Agar pH 7.4): 7.5 µg/mL (≈ 25.6 µM)
- MIC (Enterococcus; pH 7.4, strain 0928/72, Mueller Hinton Agar pH 7.4): 17.5 µg/mL (≈ 59.8 µM)
- MIC (Proteus mirabilis; pH 7.4, strain Hard): 17.5 µg/mL (≈ 59.8 µM)
- MIC (Proteus mirabilis; pH 7.4, strain Peras): 37.5 µg/mL (≈ 128 µM)
- MIC (Staphylococcus aureus; 209P, pH 7.4, strain 209P): 7.5 µg/mL (≈ 25.6 µM)
- MIC (Staphylococcus aureus; pH 7.4, strain 59N): 7.5 µg/mL (≈ 25.6 µM)
- MIC (Staphylococcus aureus; pH 7.4, strain Gray): 7.5 µg/mL (≈ 25.6 µM)
- MIC (Staphylococcus aureus; pH 7.4, strain Wood): 7.5 µg/mL (≈ 25.6 µM)
- MIC (Staphylococcus aureus; pH 7.4, strain Zeigler): 7.5 µg/mL (≈ 25.6 µM)
- MIC (Bacteroides corrodens; 48 hrs): 7.5 µg/mL (≈ 25.6 µM)
- MIC (Bacteroides corrodens; 72 hrs): 7.5 µg/mL (≈ 25.6 µM)
- MIC (Bacteroides fragilis; 48 hrs): 3 µg/mL (≈ 10.2 µM)
- MIC (Bacteroides fragilis; 72 hrs): 3 µg/mL (≈ 10.2 µM)
- MIC ([1]; 48 hrs): 7.5 µg/mL (≈ 25.6 µM)
- MIC ([1]; 72 hrs): 17.5 µg/mL (≈ 59.8 µM)
- MIC (Clostridium histolyticum; 48 hrs): 7.5 µg/mL (≈ 25.6 µM)
- MIC (Clostridium histolyticum; 72 hrs): 7.5 µg/mL (≈ 25.6 µM)
- MIC (Clostridium novyi; 48 hrs): 7.5 µg/mL (≈ 25.6 µM)
- MIC (Clostridium novyi; 72 hrs): 7.5 µg/mL (≈ 25.6 µM)
- MIC (Clostridium septicum; 48 hrs): 3 µg/mL (≈ 10.2 µM)
- MIC (Clostridium septicum; 72 hrs): 3 µg/mL (≈ 10.2 µM)
- MIC (Eubacterium lentum; 48 hrs): 17.5 µg/mL (≈ 59.8 µM)
- MIC (Eubacterium lentum; 72 hrs): 17.5 µg/mL (≈ 59.8 µM)
- MIC (Peptostreptococcus; 48 hrs): 3 µg/mL (≈ 10.2 µM)
- MIC (Peptostreptococcus; 72 hrs): 3 µg/mL (≈ 10.2 µM)
- MIC (Candida albicans; strain 1, after 48 hours): 150 µg/mL (≈ 512 µM)
- MIC (Candida albicans; strain 2, after 48 hours): 75 µg/mL (≈ 256 µM)
- MIC (Candida albicans; strain 3, after 48 hours): 150 µg/mL (≈ 512 µM)
- MIC (Candida albicans; strain 4, after 48 hours): 75 µg/mL (≈ 256 µM)
- MIC (Candida albicans; strain 5, after 48 hours): 75 µg/mL (≈ 256 µM)
- MIC (Candida albicans; strain 6, after 48 hours): 150 µg/mL (≈ 512 µM)
- MIC (Candida albicans; strain 8, after 48 hours): 150 µg/mL (≈ 512 µM)
- MIC (Candida albicans; strain 9, after 48 hours): 75 µg/mL (≈ 256 µM)
- MIC (Candida albicans; strain 29, after 48 hours): 75 µg/mL (≈ 256 µM)
- MIC (Candida albicans; strain Atkisson, after 48 hours): 75 µg/mL (≈ 256 µM)
- MIC (Candida albicans; strain Bertrand, after 48 hours): 150 µg/mL (≈ 512 µM)
- MIC (Candida albicans; strain Bevan, after 48 hours): 150 µg/mL (≈ 512 µM)
- MIC (Candida albicans; strain Blunden, after 48 hours): 75 µg/mL (≈ 256 µM)
- MIC (Candida albicans; strain Bognay, after 48 hours): 75 µg/mL (≈ 256 µM)
- MIC (Candida albicans; strain Boyer, after 48 hours): 150 µg/mL (≈ 512 µM)
- MIC (Candida albicans; strain Burke, after 48 hours): 75 µg/mL (≈ 256 µM)
- MIC (Candida albicans; strain Burnside, after 48 hours): 150 µg/mL (≈ 512 µM)
- MIC (Candida albicans; strain Collins, after 48 hours): 75 µg/mL (≈ 256 µM)
- MIC (Candida albicans; strain Fix, after 48 hours): 75 µg/mL (≈ 256 µM)
- MIC (Candida albicans; strain Frazier, after 48 hours): 150 µg/mL (≈ 512 µM)
- MIC (Candida albicans; strain Fulcher, after 48 hours): 75 µg/mL (≈ 256 µM)
- MIC (Candida albicans; strain Gay, after 48 hours): 150 µg/mL (≈ 512 µM)
- MIC (Candida albicans; strain Hons, after 48 hours): 150 µg/mL (≈ 512 µM)
- MIC (Candida albicans; strain Johnson, after 48 hours): 150 µg/mL (≈ 512 µM)
- MIC (Candida albicans; strain Kenndy 2, after 48 hours): 150 µg/mL (≈ 512 µM)
- MIC (Candida albicans; strain Kennedy 1, after 48 hours): 75 µg/mL (≈ 256 µM)
- MIC (Candida albicans; strain Lehtman, after 48 hours): 150 µg/mL (≈ 512 µM)
- MIC (Candida albicans; strain Lusk, after 48 hours): 75 µg/mL (≈ 256 µM)
- MIC (Candida albicans; strain Merkel, after 48 hours): 75 µg/mL (≈ 256 µM)
- MIC (Candida albicans; strain Newcomb, after 48 hours): 37.5 µg/mL (≈ 128 µM)
- MIC (Candida albicans; strain Sherod, after 48 hours): 150 µg/mL (≈ 512 µM)
- MIC (Candida albicans; strain Shurelli, after 48 hours): 150 µg/mL (≈ 512 µM)
- MIC (Candida albicans; strain Sparks, after 48 hours): 150 µg/mL (≈ 512 µM)
- MIC (Candida albicans; strain Tyner, after 48 hours): 150 µg/mL (≈ 512 µM)
- MIC (Aspergillus niger 6275): 37.5 µg/mL (≈ 128 µM)
- MIC (Aspergillus sp. No. 3): 37.5 µg/mL (≈ 128 µM)
- MIC (Epidermophyton floccosum): 17.5 µg/mL (≈ 59.8 µM)
- MIC (Microsporum distortum): 17.5 µg/mL (≈ 59.8 µM)
- MIC (Microsporum nanum): 17.5 µg/mL (≈ 59.8 µM)
- MIC (Trichophyton ascoides): 17.5 µg/mL (≈ 59.8 µM)
- MIC (Trichophyton discoides): 17.5 µg/mL (≈ 59.8 µM)
- MIC (Trichophyton ferrugineum): 37.5 µg/mL (≈ 128 µM)
- MIC (Trichophyton gallinae): 7.5 µg/mL (≈ 25.6 µM)
- MIC (Trichophyton megninii): 7.5 µg/mL (≈ 25.6 µM)
- MIC ([2]; strain A, after 96 hours): 7.5 µg/mL (≈ 25.6 µM)
- MIC ([2]; strain B, after 96 hours): 7.5 µg/mL (≈ 25.6 µM)
- MIC ([2]; strain C, after 96 hours): 7.5 µg/mL (≈ 25.6 µM)
- MIC ([2]; strain H377, after 96 hours): 17.5 µg/mL (≈ 59.8 µM)
- MIC ([2]; strain Young, after 96 hours): 7.5 µg/mL (≈ 25.6 µM)
- MIC (Trichophyton rubrum; strain 3, after 96 hours): 17.5 µg/mL (≈ 59.8 µM)
- MIC (Trichophyton rubrum; strain 360, after 96 hours): 17.5 µg/mL (≈ 59.8 µM)
- MIC (Trichophyton rubrum; strain Blehl, after 96 hours): 17.5 µg/mL (≈ 59.8 µM)
- MIC (Trichophyton rubrum; strain Haggerty, after 96 hours): 17.5 µg/mL (≈ 59.8 µM)
- MIC ([3]; strain 2, after 96 hours): 7.5 µg/mL (≈ 25.6 µM)
- MIC ([3]; strain not given, after 96 hours): 17.5 µg/mL (≈ 59.8 µM)
- MIC (Trichophyton soudenense): 17.5 µg/mL (≈ 59.8 µM)
- MIC (Trichophyton tonsurans): 200 µg/mL (≈ 683 µM)
- MIC (Tricoderm sp.): 7.5 µg/mL (≈ 25.6 µM)
- LD50 ([4]; Oral): ~1000 mg/kg
- LD50 ([4]; ip, I.P.): 225 mg/kg
- LD50 ([4]; sc, S.C.): 900 mg/kg
- IC50 (Trychomonas vaginalis; 50% suppression, read-out: Minimal Level to Produce 50% Suppression): 32 µg/mL (≈ 109 µM)
- IC90 (Trychomonas vaginalis; 90% suppression, read-out: Minimal Level to Produce 90% Suppression): 75 µg/mL (≈ 256 µM)

— patent US4122034A, “Antimicrobial compositions” (Schering Corporation, priority 1975, dated 1978)
